Laboratory results reported in US12534762B2, “Treating atopic dermatitis by targeting the WNT pathway” (Children's Medical Center Corporation, priority 2018, dated 2026).

System: Xenopus embryos
Assay: Dorso-animal morpholino injection, phenotype scored at stage 35
Type: in vivo, Xenopus laevis
Conditions: FIG. 6 Panel D
Protocol: Xenopus embryo manipulations. Procedures for embryo manipulation, reverse transcription PCR and in situ hybridization were performed as previously described (Zhang et al., 2012, Cell, 149:1565-1577). The full length Xenopus laevis Tmem79 cDNA was used to make in situ sense and antisense probes.
mRNA and Morpholino injection. For animal cap assays, indicated mRNAs (Tmem79, 100 and 200 pg; Xwnt8, 10 pg; β-catenin 50 pg; Xnr1, 250 pg; BMP4, 100 pg) were injected into the animal pole at 4-cell stage, and animal caps were dissected at stage 9 (in the case of Xwnt8, Xnr1, BMP4) or at stage 8.5 and treated with recombinant proteins (bFGF, 100 ng/ml; hShh, 1.5 ng/mL) until stage 10 before RT-PCR. For Neural induction assay the MO (20 ng) for Tmem79, Usp8 or β-catenin was injected into the animal pole at 4-cell stage, and animal caps were dissected at stage 9 and treated with recombinant protein Noggin (500 ng/mL) until stage 18 before RT-PCR. To examine Tmem79 and Usp8 MOs specificity, […] of mRNA of Xenopus Tmem79, mouse Tmem79, Xenopus Usp8 or xmutUsp8 (Xenopus Usp8 mutated for mismatches with the MO) were injected with a control MO, Tmem79 MO or Usp8 MO (20 ng) into the animal pole at the 2-cell stage and cultured til stage 10 for Western blotting. To knockdown the endogenous xTmem79 or xUsp8, 20 ng of control MO, Tmem79 MO or Usp8 MO were injected into two dorso-animal blastomeres at the 8-cell stage and the phenotype was scored at stage 35. To rescue the Tmem79 MO phenotype, […] of mTmem 79, 20 ng of Usp8 MO or 10 ng of β-catenin MO was injected together with Tmem79 MO (20 ng). RT-PCR primers and Morpholinos. RT-PCT primer for Xenopus laevis Tmem 79: Forward, 5′-[…]-3′ (SEQ ID NO: 22); Reverse, 5′-[…]-3′ (SEQ ID NO: 23). The MO sequences: Tmem79.S MO, 5′-[…]-3′ (SEQ ID NO: 24); Tmem79.L MO, 5′-[…]-3′ (SEQ ID NO: 25); Usp8 MO, 5′-[…]-3′ ((SEQ ID NO: 26; Gene Tools, LLC). Phylogeny analysis and protein sequences. TMEM79 protein sequences were derived from full-length NCBI accessions and genomic sequences. Human (Homo sapiens): NP_115699.1 (SEQ ID NO: 27), Chimpanzee (Pan troglodytes): XP_001165258.1 (SEQ ID NO: 28), Rat (Rattus norvegicus): NP_001029068.1 (SEQ ID NO: 29), Mouse (Mus musculus): NP_077208.1 (SEQ ID NO: 30), Chicken (Gallus gallus): XP_024999333.1 (SEQ ID NO: 31), Frog (Xenopus laevis): XP_018089022.1 (SEQ ID NO: 32), Zebra fish (Danio rerio): XP_009290676.1 (SEQ ID NO: 33) and Coelacanth (Latimeria chalumnae): XP_014351966.1 (SEQ ID NO: 34). The Protein sequences encoded by mouse MAPEG family (Membrane-Associated Proteins in Eicosanoid and Glutathione metabolism, pfam01124) members protein sequences were derived from full-length NCBI accessions and genomic sequences. […]

Usp8 MO: morpholino against Xenopus Usp8, SEQ ID NO: 26 (antisense GCTGCAAATTCTCCTCTCTTATCAA; all phosphorodiamidate morpholino (PMO); listed as Xenopus laevis)
Enlarged Head: 93.2 % of embryos | Moderate Deficiency (anterior deficiency): 0.0 % of embryos | Severe Deficiency (anterior deficiency): 0.0 % of embryos | Normal (dorso-animal injection): 6.8 % of embryos
